Values quoted from earlier work as cited in patent US8962594B2, “Method of using nutritional compounds dihydroquercetin (taxifolin) and arabinogalactan in combination with dihydroquercetin (taxifolin) to reduce and control cardiometabolic risk factors associated with metabolic syndrome and hypercholesterolemia” (Flavitpure, Inc., priority 2012, dated 2015).

Key:
TNF-α = settings: LPS-stimulated PBMC, pre-treated
IL-1β = settings: LPS-stimulated PBMC, pre-treated
[1] = molecular target: T1, microsomal triglyceride transfer protein (MTP) (Homo sapiens, UniProt P55157)
T1 construct: endogenous in cells; host or cells: HepG2
T1 sequence (P55157 19-894): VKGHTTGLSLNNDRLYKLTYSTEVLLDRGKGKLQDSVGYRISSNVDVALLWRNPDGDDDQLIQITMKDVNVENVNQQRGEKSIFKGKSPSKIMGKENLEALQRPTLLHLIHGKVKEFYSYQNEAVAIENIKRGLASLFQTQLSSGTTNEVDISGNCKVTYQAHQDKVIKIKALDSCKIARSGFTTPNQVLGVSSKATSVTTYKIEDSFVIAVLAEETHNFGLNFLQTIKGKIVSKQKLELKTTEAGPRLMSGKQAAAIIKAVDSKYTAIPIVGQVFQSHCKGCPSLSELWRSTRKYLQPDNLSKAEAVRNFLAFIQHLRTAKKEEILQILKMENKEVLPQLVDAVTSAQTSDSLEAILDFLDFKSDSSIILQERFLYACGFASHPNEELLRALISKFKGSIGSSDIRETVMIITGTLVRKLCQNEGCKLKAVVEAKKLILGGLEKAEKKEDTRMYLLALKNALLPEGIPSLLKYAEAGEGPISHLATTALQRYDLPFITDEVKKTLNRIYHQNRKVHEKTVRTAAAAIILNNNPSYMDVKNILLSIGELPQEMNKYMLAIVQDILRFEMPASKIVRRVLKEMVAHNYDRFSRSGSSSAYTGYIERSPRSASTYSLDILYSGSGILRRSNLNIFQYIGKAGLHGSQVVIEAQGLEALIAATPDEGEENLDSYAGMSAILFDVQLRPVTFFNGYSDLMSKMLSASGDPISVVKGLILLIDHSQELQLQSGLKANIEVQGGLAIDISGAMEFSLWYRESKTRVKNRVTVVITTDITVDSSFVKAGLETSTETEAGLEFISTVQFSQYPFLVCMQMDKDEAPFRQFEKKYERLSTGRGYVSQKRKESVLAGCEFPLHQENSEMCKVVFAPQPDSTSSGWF

rats = rats treated with high levels for long periods of time
[2] = tested on: diacylglycerol acyltransferase (DGAT); settings: non-competitive
RGC-5 cells = settings: read-out: EC50 for protection of RGC-5 cells from oxidative stress induced by GSH depletion
HepG2 cells = settings: 200 umol, within 24 h
RBCs [3] = settings: pre-incubation of RBCs with water-soluble compound for 30 min; remaining hemolysis
[4] = tested on: CNS-derived mouse HT22 cells; settings: read-out: EC50 for protection of HT22 cells from a similar insult
[5] = tested on: Glutathione prexidase (GPx); settings: 25 and 50 μM
[6] = tested on: apolipoprotein A-I (apoA-I); settings: pulse-chase, HepG2 cells
PPARa = settings: supplementation of HepG2 cells
HMG-CoA reductase = molecular target: T2, HMG-CoA reductase (Homo sapiens, UniProt P04035)
T2 construct: endogenous in cells; host or cells: HepG2
T2 sequence (P04035 1-888): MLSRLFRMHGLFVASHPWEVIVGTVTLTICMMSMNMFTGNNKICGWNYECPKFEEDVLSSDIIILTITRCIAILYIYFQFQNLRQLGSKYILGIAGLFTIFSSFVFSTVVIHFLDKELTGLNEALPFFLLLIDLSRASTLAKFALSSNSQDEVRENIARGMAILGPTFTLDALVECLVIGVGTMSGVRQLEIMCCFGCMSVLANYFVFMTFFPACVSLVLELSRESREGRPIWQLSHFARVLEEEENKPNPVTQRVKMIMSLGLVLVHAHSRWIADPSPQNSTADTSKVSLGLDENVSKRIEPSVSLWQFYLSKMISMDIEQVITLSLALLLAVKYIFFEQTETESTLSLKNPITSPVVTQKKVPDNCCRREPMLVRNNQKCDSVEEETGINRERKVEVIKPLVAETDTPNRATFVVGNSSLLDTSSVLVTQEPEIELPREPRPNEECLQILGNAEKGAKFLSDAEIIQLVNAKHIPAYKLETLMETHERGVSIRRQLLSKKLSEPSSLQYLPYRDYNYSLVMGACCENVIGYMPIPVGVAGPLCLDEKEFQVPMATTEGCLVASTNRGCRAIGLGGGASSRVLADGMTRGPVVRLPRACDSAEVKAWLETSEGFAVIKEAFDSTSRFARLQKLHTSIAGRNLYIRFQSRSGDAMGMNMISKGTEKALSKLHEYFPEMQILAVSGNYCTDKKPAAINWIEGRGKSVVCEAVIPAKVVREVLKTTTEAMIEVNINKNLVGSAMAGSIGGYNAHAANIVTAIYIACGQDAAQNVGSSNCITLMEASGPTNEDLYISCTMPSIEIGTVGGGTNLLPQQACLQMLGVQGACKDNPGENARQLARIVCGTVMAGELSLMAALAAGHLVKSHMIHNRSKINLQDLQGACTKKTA

RBCs [7] = settings: remaining hemolysis; vehicle 75.7±5.2%, P<0.001

| Structure (SMILES) | mean inhibition of the secretion of TNF-α (TNF-α) | inhibition of IL-1β secretion (IL-1β) | inhibition of MTP [1] | toxic effects (rats) | DGAT-1 mRNA expression (DGAT-1 mRNA) | reduction of apoB secretion (apolipoprotein B (apoB); basal and lipid-rich conditions, 200 micromol/L) | average reduction in labeled apoB in the medium (apolipoprotein B (apoB); pulse-chase, HepG2 cells) | decrease in DGAT activity (change) [2] | TG transfer into the microsomal lumen (change) (microsomal TG synthesis) | inhibition of microsomal TG synthesis (microsomal TG synthesis) | EC50 (RGC-5 cells) | inhibition of cholesterol synthesis (HepG2 cells) | peroxyl radical (AAPH)-induced hemolysis reduced to (RBCs [3]) | EC50 [4] | DGAT-2 mRNA expression (DGAT-2 mRNA) | Glutathione prexidase (GPx) protein level [5] | increase of ApoA-I secretion [6] | PPARa expression (PPARa) | inhibition of HMG-CoA reductase activity (HMG-CoA reductase) | phospholipase C-induced hemolysis (RBCs [7]) |
| --- | --- | --- | --- | --- | --- | --- | --- | --- | --- | --- | --- | --- | --- | --- | --- | --- | --- | --- | --- | --- |
| O=C(O)Cc1ccc(O)c(O)c1 [3,4-DHPAA, 3,4-dihydroxyphenylacetic acid] | 86.4% | 97.9% | – | – | – | – | – | – | – | – | – | – | – | – | – | – | – | – | – | – |
| O=C1c2c(O)cc(O)cc2OC(c2ccc(O)c(O)c2)C1O (racemic) [Dihydroquercetin (taxifolin)] | – | – | 41% | No toxic effects | essentially unchanged | up to 63% | 61+−8% | −35% | −26% | 37% | 30 µM | 86+−3% | 32.5±5.6% | > 50 µM | essentially unchanged | significantly increased | 36+−10% | increase | 47+−7% | 45.4±10.0% |
